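A five-concentration, 48-hour dose response in 96-well plates underlies each endpoint, interpolated linearly between surrounding concentrations. At the GI50, growth is halved.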 Calls of active or inactive are those of the source. Cut-off read from the data, not from the text of the source: active = GI50 up to about 1.1 µM and inactive = higher.
Key:
Assay in all cases: NCI tumour cell line growth inhibition, 48 h
A498 = tested on: A498
ACHN = tested on: ACHN
BT-549 = tested on: BT-549
DU-145 = tested on: DU-145
HOP-62 = tested on: HOP-62
HT-29 = tested on: HT-29
IGROV-1 = tested on: IGROV-1
MCF7 = tested on: MCF7
MDA-MB-435 = tested on: MDA-MB-435
Malme-3M = tested on: Malme-3M
NCI-H226 = tested on: NCI-H226
NCI-H23 = tested on: NCI-H23
OVCAR-3 = tested on: OVCAR-3
SF-295 = tested on: SF-295
SF-539 = tested on: SF-539
SK-MEL-28 = tested on: SK-MEL-28
SK-MEL-2 = tested on: SK-MEL-2
SW-620 = tested on: SW-620
U-251 = tested on: U-251
UO-31 = tested on: UO-31

SMILES	GI50 (A498)	GI50 (ACHN)	GI50 (BT-549)	GI50 (DU-145)	GI50 (HOP-62)	GI50 (HT-29)	GI50 (IGROV-1)	GI50 (MCF7)	GI50 (MDA-MB-435)	GI50 (Malme-3M)	GI50 (NCI-H226)	GI50 (NCI-H23)	GI50 (OVCAR-3)	GI50 (SF-295)	GI50 (SF-539)	GI50 (SK-MEL-28)	GI50 (SK-MEL-2)	GI50 (SW-620)	GI50 (U-251)	GI50 (UO-31)
CC(/C=C/c1ccccc1)=N\NC(=S)N/N=C(C)/C=C/c1ccccc1	1.24 µM (inactive)	23.6 µM (inactive)	24.5 µM (inactive)	31.2 µM (inactive)	28.1 µM (inactive)	8.69 µM (inactive)	13.4 µM (inactive)	6.46 µM (inactive)	15.5 µM (inactive)	10 µM (inactive)	21 µM (inactive)	23.7 µM (inactive)	5.64 µM (inactive)	20.7 µM (inactive)	21.1 µM (inactive)	15.4 µM (inactive)	10.9 µM (inactive)	15.8 µM (inactive)	4.59 µM (inactive)	4.33 µM (inactive)
CN(C)CCCNc1ncnc2c1ncn2C1OC(CO)C(O)C1O (centres undefined)	> 100 µM (inactive)	> 100 µM (inactive)	92.7 µM (inactive)	> 100 µM (inactive)	> 100 µM (inactive)	> 100 µM (inactive)	93.5 µM (inactive)	> 100 µM (inactive)	> 100 µM (inactive)	> 100 µM (inactive)	> 100 µM (inactive)	> 100 µM (inactive)	> 100 µM (inactive)	> 100 µM (inactive)	> 100 µM (inactive)	> 100 µM (inactive)	> 100 µM (inactive)	> 100 µM (inactive)	> 100 µM (inactive)	> 100 µM (inactive)
CC(=O)NC1C(OCc2ccccc2)OC(CO)C(O)C1OC(C)C(=O)N[C@@H](C)C(=O)N[C@H](CCC(=O)NCCNCCNc1c2ccccc2nc2cccc([N+](=O)[O-])c12)C(N)=O (some centres undefined)	0.137 µM (active)	0.0557 µM (active)	0.0698 µM (active)	0.0241 µM (active)	0.192 µM (active)	0.0369 µM (active)	0.0385 µM (active)	< 0.0195 µM (active)	0.0389 µM (active)	0.043 µM (active)	0.149 µM (active)	0.022 µM (active)	0.226 µM (active)	0.207 µM (active)	0.0982 µM (active)	0.245 µM (active)	0.048 µM (active)	0.0266 µM (active)	0.0944 µM (active)	0.24 µM (active)
Cc1cc2c(O)c(c1)CN(Cc1ccccc1)Cc1cc(C)cc(c1O)CN(Cc1ccccc1)Cc1cc(C)cc(c1O)CN(Cc1ccccc1)C2	> 100 µM (inactive)	> 100 µM (inactive)	> 100 µM (inactive)	> 100 µM (inactive)	46.2 µM (inactive)	> 100 µM (inactive)	> 100 µM (inactive)	> 100 µM (inactive)	> 100 µM (inactive)	> 100 µM (inactive)	> 100 µM (inactive)	> 100 µM (inactive)	> 100 µM (inactive)	> 100 µM (inactive)	> 100 µM (inactive)	> 100 µM (inactive)	32.3 µM (inactive)	> 100 µM (inactive)	> 100 µM (inactive)	> 100 µM (inactive)
O=C(N/N=C(COc1ccc(Cl)cc1)\N=C\c1ccncc1)c1ccncc1	45.9 µM (inactive)	> 100 µM (inactive)	> 100 µM (inactive)	> 100 µM (inactive)	> 100 µM (inactive)	> 100 µM (inactive)	> 100 µM (inactive)	> 100 µM (inactive)	> 100 µM (inactive)	> 100 µM (inactive)	> 100 µM (inactive)	> 100 µM (inactive)	> 100 µM (inactive)	> 100 µM (inactive)	> 100 µM (inactive)	> 100 µM (inactive)	> 100 µM (inactive)	> 100 µM (inactive)	> 100 µM (inactive)	
O=C(O)CCC(NC(=O)/C(=C/c1ccccc1)NC(=O)c1ccccc1)C(=O)O (centres undefined)	> 100 µM (inactive)	> 100 µM (inactive)	> 100 µM (inactive)	> 100 µM (inactive)	> 100 µM (inactive)	> 100 µM (inactive)	> 100 µM (inactive)	> 100 µM (inactive)	> 100 µM (inactive)	> 100 µM (inactive)	> 100 µM (inactive)	> 100 µM (inactive)	> 100 µM (inactive)	> 100 µM (inactive)	> 100 µM (inactive)	> 100 µM (inactive)	> 100 µM (inactive)	> 100 µM (inactive)		> 100 µM (inactive)
CCOC(=O)CCC(NC(=O)c1ccc(Nc2nc3ccccc3nc2C(=O)OCC)s1)C(=O)OCC (centres undefined)	> 100 µM (inactive)		46 µM (inactive)	> 100 µM (inactive)		> 100 µM (inactive)	> 100 µM (inactive)	> 100 µM (inactive)	> 100 µM (inactive)	> 100 µM (inactive)	21.1 µM (inactive)		> 100 µM (inactive)		63.4 µM (inactive)	> 100 µM (inactive)	> 100 µM (inactive)	> 100 µM (inactive)	> 100 µM (inactive)	> 100 µM (inactive)
CC(C)(Cc1ccccc1)N1C(=O)N1C(C)(C)Cc1ccccc1	> 100 µM (inactive)		29.4 µM (inactive)	> 100 µM (inactive)		15.5 µM (inactive)	29.9 µM (inactive)	31.5 µM (inactive)	39.1 µM (inactive)	23.4 µM (inactive)	16.4 µM (inactive)	24 µM (inactive)	> 100 µM (inactive)		33.3 µM (inactive)	> 100 µM (inactive)	19.7 µM (inactive)	57 µM (inactive)	38 µM (inactive)	14.1 µM (inactive)
C/C(CC(O)(C(F)(F)F)C(F)(F)F)=N\O	> 10 µM (inactive)	> 10 µM (inactive)	> 10 µM (inactive)	> 10 µM (inactive)	> 10 µM (inactive)	> 10 µM (inactive)	> 10 µM (inactive)	> 10 µM (inactive)	> 10 µM (inactive)	> 10 µM (inactive)	> 10 µM (inactive)	> 10 µM (inactive)	> 10 µM (inactive)	> 10 µM (inactive)	> 10 µM (inactive)	> 10 µM (inactive)	> 10 µM (inactive)	> 10 µM (inactive)	> 10 µM (inactive)	
COc1cccc2c1C(=O)c1c(O)c3c(c(O)c1C2=O)CC(O)(C(O)CO)CC3OC1CC(N2CCOCC2)C(O)C(C)O1 (centres undefined)	0.00135 µM (active)	0.00193 µM (active)	0.0294 µM (active)	0.00703 µM (active)	0.00315 µM (active)	0.00308 µM (active)	0.00279 µM (active)	0.0223 µM (active)	0.00883 µM (active)	0.00251 µM (active)	0.0118 µM (active)	0.00464 µM (active)	0.0023 µM (active)	0.00206 µM (active)	0.0043 µM (active)	0.00406 µM (active)	0.00422 µM (active)	0.00144 µM (active)	0.0047 µM (active)	

— ChEMBL document CHEMBL1201862, “PubChem BioAssay data set” (2004)
